Results on 28 molecules are retold here after PubChem BioAssay (NCI).

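Step 1: Grow cells in 96-well plates. Step 2: Expose to compound for 48 hours at 5 concentrations. Step 3: Interpolate endpoints linearly; if unreached, use highest concentration. GI50: concentration for 50% inhibition of growth. At the TGI there is no net growth.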 A value given as a limit tells only on which side of the number the result lay.

The test system of the first assay is U251 CNS. Briefly: NCI-60 cell line screen, 48 h.
For the molecule `C[C@]12CCc3sc(Nc4ccc(OC(F)(F)F)cc4)nc3C1=CC[C@@H]1[C@@H]2CC[C@]2(C)C(=O)CC[C@@H]12`, the GI50 is 1.09 µM and the TGI stood at 3.26 µM.
As to `CCC1=CCN(c2cc(C)ccn2)OC1c1ccc(OC)cc1` (stereo not given), the TGI turned out to be 44.1 µM.
`CC(=O)Oc1c(C)c(-c2ccccc2)c(C)c(-c2ccccc2)c1C(=S)c1ccccc1` displayed a TGI greater than 100 µM.
`N#CCC(=O)N/N=C1/C(=O)N(c2ccc(Cl)cc2)C(=O)C(=O)C1c1nc2ccccc2s1` (stereo not given) showed a TGI greater than 100 µM.
In turn, `CCCCCCCCCCCC(=O)OCCOCCOCCOCCOCCOC(=O)CCCCCCCCCCC` returned a TGI greater than 100 µM.
For `COc1ccc(C=O)cc1O[Si](C)(C)C(C)(C)C`, the TGI was greater than 100 µM.
On the same count and under the same terms, to `CC1(O)C(C)(O)C2(C)O[Te]3(OC12C)OC1(C)C(C)(O)C(C)(O)C1(C)O3` (stereo not given) belongs 23.8 µM; to `O=C1COc2cc(NC(=S)Nc3ccccc3)ccc2N1`, greater than 100 µM.
`CCCCCCCCn1ccc2cc(NC(=O)Cn3cc(CN4CCCCCC4)nn3)ccc21`: the GI50 was 1.83 µM and the TGI is 3.29 µM.
Consider `O=S(=O)(C1=CC(S(=O)(=O)c2ccccc2)CN(Cc2ccccc2)C1c1cccc2ccccc12)c1ccccc1` (stereo not given), for which the TGI is greater than 69 µM.
As to `O=C1C=C(Nc2ccccc2C(=O)CC(=O)C(=O)Nc2cccc([N+](=O)[O-])c2)c2ccccc2C1=O`, the TGI was greater than 100 µM.
`O=C(Nc1ccc(Cl)cc1)C1C(=O)C(=O)N(c2ccc(Cl)cc2)C1=O` (stereo not given) registered a TGI greater than 100 µM.
In the case of `CCC[CH2][Sn]([CH2]CCC)([O]C(=O)CN)[O]C(=O)CN`, the GI50 was 26 µM and the TGI is 80.7 µM.
Regarding `O=C(Nc1ccc(C(F)(F)F)cc1[N+](=O)[O-])C(=O)C1NC(=S)NC1=O` (stereo not given), the TGI was greater than 100 µM.
`COc1cc(NCC(C#N)C#N)ccc1N=Nc1ccc(Cl)cc1` registered a TGI of 37 µM.
`CC(=O)c1ccc(NC(=O)/C(CC(=O)c2sc(-c3cccnc3)nc2C)=N/NC(N)=O)cc1`: the TGI was greater than 100 µM.
`Cc1ccc(S(=O)(=O)OC2CC=CC2)cc1` yielded a TGI greater than 100 µM.
On the same count and under the same terms, to `C=CC[P@]1(=O)O[C@H](c2ccccc2)[C@H](C)N1C` belongs greater than 100 µM; to `O=C(Nc1cccc(O)c1)C(=O)C1C(=O)NC(=S)NC1=O`, greater than 100 µM; to `O=C1N/C(=C\[N+](=O)[O-])c2ccccc21`, greater than 100 µM.
`COC(=O)C(=O)CC(=O)CCn1[nH]c(=O)c(Cl)c(Cl)c1=O` had a TGI greater than 100 µM.
Still for that read-out and setting: to `OCC12C=CC(C1)c1ccccc12` (stereo not given) belongs greater than 100 µM; to `NC(CCCC(N)P(=O)(O)O)P(=O)(O)O` (stereo not given), greater than 100 µM.
With `CCOC(=O)[CH-]C(=O)C12CC3CC(CC(C3)C1)C2.CCOC(=O)[CH-]C(=O)C12CC3CC(CC(C3)C1)C2.CC[O-].CC[O-].[Ti+4]`, the GI50 was greater than 100 µM and the TGI is greater than 100 µM.
As to `CC(=O)C1C(c2ccccc2)C2(C)OC(=O)C(C#N)C12C` (stereo not given), the TGI was greater than 100 µM.
As to `C[C@]12CC=CC(=O)[C@@]1(C)CCC(=O)C2`, the TGI was greater than 100 µM.

The test system of a further assay is OVCAR-3 ovarian. The assay can be described thus: NCI-60 cell line screen, 48 h.
In the case of `C[C@]12CCc3sc(Nc4ccc(OC(F)(F)F)cc4)nc3C1=CC[C@@H]1[C@@H]2CC[C@]2(C)C(=O)CC[C@@H]12`, the GI50 is 1.94 µM and the TGI is 4.14 µM.
Regarding `CCC1=CCN(c2cc(C)ccn2)OC1c1ccc(OC)cc1` (stereo not given), the TGI was greater than 100 µM.
The same measure, in the same setting: to `CC(=O)Oc1c(C)c(-c2ccccc2)c(C)c(-c2ccccc2)c1C(=S)c1ccccc1` belongs greater than 100 µM; to `N#CCC(=O)N/N=C1/C(=O)N(c2ccc(Cl)cc2)C(=O)C(=O)C1c1nc2ccccc2s1` (stereo not given), greater than 100 µM; to `CCCCCCCCCCCC(=O)OCCOCCOCCOCCOCCOC(=O)CCCCCCCCCCC`, greater than 100 µM.
With `COc1ccc(C=O)cc1O[Si](C)(C)C(C)(C)C`, the TGI is greater than 100 µM.
`CC1(O)C(C)(O)C2(C)O[Te]3(OC12C)OC1(C)C(C)(O)C(C)(O)C1(C)O3` (stereo not given) came in with a TGI of 41.5 µM.
`O=C1COc2cc(NC(=S)Nc3ccccc3)ccc2N1` yielded a TGI greater than 100 µM.
On to `CCCCCCCCn1ccc2cc(NC(=O)Cn3cc(CN4CCCCCC4)nn3)ccc21`, for which the GI50 was 1.73 µM and the TGI turned out to be 3.24 µM.
With `O=S(=O)(C1=CC(S(=O)(=O)c2ccccc2)CN(Cc2ccccc2)C1c1cccc2ccccc12)c1ccccc1` (stereo not given), the TGI is greater than 69 µM.
`O=C1C=C(Nc2ccccc2C(=O)CC(=O)C(=O)Nc2cccc([N+](=O)[O-])c2)c2ccccc2C1=O` registered a TGI of 55.2 µM.
`O=C(Nc1ccc(Cl)cc1)C1C(=O)C(=O)N(c2ccc(Cl)cc2)C1=O` (stereo not given) returned a TGI greater than 100 µM.
On to `CCC[CH2][Sn]([CH2]CCC)([O]C(=O)CN)[O]C(=O)CN`, for which the GI50 is 27.8 µM and the TGI was greater than 100 µM.
For the molecule `O=C(Nc1ccc(C(F)(F)F)cc1[N+](=O)[O-])C(=O)C1NC(=S)NC1=O` (stereo not given), the TGI is greater than 100 µM.
Take `COc1cc(NCC(C#N)C#N)ccc1N=Nc1ccc(Cl)cc1`: the TGI turned out to be 38.4 µM.
The molecule `CC(=O)c1ccc(NC(=O)/C(CC(=O)c2sc(-c3cccnc3)nc2C)=N/NC(N)=O)cc1` displayed a TGI greater than 100 µM.
Same read-out and setting: to `Cc1ccc(S(=O)(=O)OC2CC=CC2)cc1` belongs greater than 100 µM.
`C=CC[P@]1(=O)O[C@H](c2ccccc2)[C@H](C)N1C`: the TGI was greater than 100 µM.
Molecule `O=C(Nc1cccc(O)c1)C(=O)C1C(=O)NC(=S)NC1=O` came in with a TGI greater than 100 µM.
For the molecule `O=C1N/C(=C\[N+](=O)[O-])c2ccccc21`, the TGI was greater than 100 µM.
Still for that read-out and setting: the result for `COC(=O)C(=O)CC(=O)CCn1[nH]c(=O)c(Cl)c(Cl)c1=O` reads greater than 100 µM.
In turn, `OCC12C=CC(C1)c1ccccc12` (stereo not given) came in with a TGI greater than 100 µM.
For `COc1ccc(NC(=O)CC/C(CC(=O)c2ccco2)=N/NC(=O)C(N)=O)cc1`, the TGI is greater than 100 µM.
`NC(CCCC(N)P(=O)(O)O)P(=O)(O)O` (stereo not given) gave a TGI greater than 100 µM.
Regarding `CCOC(=O)[CH-]C(=O)C12CC3CC(CC(C3)C1)C2.CCOC(=O)[CH-]C(=O)C12CC3CC(CC(C3)C1)C2.CC[O-].CC[O-].[Ti+4]`, the GI50 was greater than 100 µM and the TGI was greater than 100 µM.
On to `CC(=O)C1C(c2ccccc2)C2(C)OC(=O)C(C#N)C12C` (stereo not given), for which the TGI was greater than 100 µM.
Same read-out and setting: the result for `C[C@]12CC=CC(=O)[C@@]1(C)CCC(=O)C2` reads greater than 100 µM; that for `CC(=O)Oc1cc2c(cc1OC(C)=O)C1(C)CCC2(C)c2cc(OC(C)=O)c(OC(C)=O)cc21`, 29.7 µM.

In the next assay the test system is HCT-15 colon. The assay can be described thus: NCI-60 cell line screen, 48 h.
Turning to `C[C@]12CCc3sc(Nc4ccc(OC(F)(F)F)cc4)nc3C1=CC[C@@H]1[C@@H]2CC[C@]2(C)C(=O)CC[C@@H]12`, the GI50 was 1.69 µM and the TGI stood at 4.1 µM.
Consider `CCC1=CCN(c2cc(C)ccn2)OC1c1ccc(OC)cc1` (stereo not given), for which the TGI was greater than 100 µM.
